Where two headings read alike, the source gives them in different places.
Conditions: 1 month, glass bottle, product of Example 4
Procedure: The solid state stability of the drug substance was determined by storing approximately 1.0 g of the material in a glass bottle at i) 40° C./75% Relative Humidity (RH), open exposure, for 1 month and b) at 50° C., closed, for 1 month. The material was assayed by HPLC for final content and degradation products in both cases.

[1] = 40° C./75% Relative Humidity, open exposure

Solid state stability: HPLC assay [1]: 96 % initial | Solid state stability: degradation observed [1]: No significant degradation observed | Solid state stability: HPLC assay (50° C., closed): 98 % initial | Solid state stability: degradation observed (50° C., closed): No significant degradation observed
Structure (SMILES): CN(CCOc1ccc(CC2SC(=O)NC2=O)cc1)c1ccccn1.O=C(O)C(O)C(O)C(=O)O (stereo not drawn) [D(−) Tartrate, 5-[4-[2-(N-methyl-N-(2-pyridyl)amino)ethoxy]benzyl]thiazolidine-2,4-dione, D(−) tartrate salt]

Reference: US20040048899A1, “Tartrate salts of thiazollidnedione derivative” (priority 2000, published 2004)
